The numbers were not newly measured in paper PMC8513935, which cites them from elsewhere.

Data set [1] is described as follows: experimental, compiled by the authors from the literature (the ESI cites the sources).
Data set [2] in a line: log P octanol/water from commercial databases, averaged (the ESI). The note with it: Octanol (wet), 25 C.
Data set [3] can be described thus: derived by the authors as gas->solvent minus gas->water (a hypothetical dry solvent; the ESI), not a two-phase measurement.

Consider `ClC(Cl)(Cl)Cl`, for which the log K of transfer, gas to solvent in data set [1] (1,2-Dichloroethane, 25 C) was 3.04 log10 K; in data set [1] (2-Methylpropan-2-ol, 25 C), 2.74 log10 K; in data set [1] (Acetonitrile, 25 C), 2.68 log10 K; in data set [1] (Butan-1-ol, 25 C) it was 2.84 log10 K; in data set [1] (Butanone, 25 C), 3.04 log10 K; in data set [1] (CCl4, 25 C) it was 3.24 log10 K. Further, the log K of transfer, gas to solvent is 3.25 log10 K in data set [1] (Chloroform, 25 C); 3.17 log10 K in data set [1] (Cyclohexanone, 25 C); 3.05 log10 K in data set [1] (Di-n-butyl ether, 25 C); 3.22 log10 K in data set [1] (Diethyl Ether, 25 C); 2.75 log10 K in data set [1] (Ethanol, 25 C); 2.82 log10 K in data set [1] (Hexadecane, 25 C). The log K of transfer, gas to solvent in data set [1] (Hexan-1-ol, 25 C) was 2.81 log10 K; in data set [1] (Hexane, 25 C), 3.03 log10 K; in data set [1] (Methanol, 25 C) it was 2.66 log10 K; in data set [1] (Octan-1-ol, 25 C), 2.79 log10 K; in data set [1] (Propan-1-ol, 25 C), 2.75 log10 K; in data set [1] (Propanone, 25 C), 3.04 log10 K. Besides, the log K of transfer, gas to solvent in data set [1] (Propionitrile, 25 C) is 2.86 log10 K; in data set [1] (Tetrahydrofuran, 25 C), 3.41 log10 K; in data set [1] (Water, 25 C), -0.06 log10 K. For the same compound, the log K of transfer, water to solvent in data set [2] is 2.83 log10 K; in data set [3] (1,2-Dichloroethane, 25 C), 3.1 log10 K; in data set [3] (2-Methylpropan-2-ol, 25 C), 2.8 log10 K; in data set [3] (Acetone, 25 C), 3.1 log10 K; in data set [3] (Acetonitrile, 25 C) it was 2.74 log10 K; in data set [3] (Butan-1-ol, 25 C), 2.9 log10 K. For the same compound, the log K of transfer, water to solvent is 3.1 log10 K in data set [3] (Butanone, 25 C); 3.3 log10 K in data set [3] (CCl4, 25 C); 3.31 log10 K in data set [3] (Chloroform, 25 C); 3.23 log10 K in data set [3] (Cyclohexanone, 25 C); 3.11 log10 K in data set [3] (Di-n-butyl ether, 25 C); 3.28 log10 K in data set [3] (Diethyl Ether, 25 C). Moreover, the log K of transfer, water to solvent in data set [3] (Ethanol, 25 C) is 2.81 log10 K; in data set [3] (Hexadecane, 25 C), 2.88 log10 K; in data set [3] (Hexan-1-ol, 25 C), 2.87 log10 K; in data set [3] (Hexane, 25 C), 3.09 log10 K; in data set [3] (Methanol, 25 C) it was 2.72 log10 K; in data set [3] (Octan-1-ol(dry), 25 C) it was 2.85 log10 K. The log K of transfer, water to solvent was 2.81 log10 K in data set [3] (Propan-1-ol, 25 C); 2.92 log10 K in data set [3] (Propionitrile, 25 C); 3.47 log10 K in data set [3] (Tetrahydrofuran, 25 C).

Take `C1CCCC1`: the log K of transfer, gas to solvent was 2.04 log10 K in data set [1] (Ethanol, 25 C); 2.27 log10 K in data set [1] (Heptan-1-ol, 25 C); 2.48 log10 K in data set [1] (Hexadecane, 25 C); 2.71 log10 K in data set [1] (Hexane, 25 C); 1.92 log10 K in data set [1] (Methanol, 25 C); 2.12 log10 K in data set [1] (Propan-1-ol, 25 C). The log K of transfer, gas to solvent was 2.12 log10 K in data set [1] (Propan-2-ol, 25 C) and -0.88 log10 K in data set [1] (Water, 25 C). Besides, the log K of transfer, water to solvent in data set [2] was 3 log10 K; in data set [3] (Ethanol, 25 C), 2.92 log10 K; in data set [3] (Heptan-1-ol, 25 C), 3.15 log10 K; in data set [3] (Hexadecane, 25 C) it was 3.36 log10 K; in data set [3] (Hexane, 25 C), 3.59 log10 K; in data set [3] (Methanol, 25 C) it was 2.8 log10 K. Further, the log K of transfer, water to solvent in data set [3] (Propan-1-ol, 25 C) is 3 log10 K; in data set [3] (Propan-2-ol, 25 C), 3 log10 K.

For `CCCCF`, the log K of transfer, gas to solvent was 1.77 log10 K in data set [1] (Hexadecane, 25 C) and -0.29 log10 K in data set [1] (Water, 25 C). For the same compound, the log K of transfer, water to solvent was 2.29 log10 K in data set [2] and 2.06 log10 K in data set [3] (Hexadecane, 25 C).

`Cc1ccc(C)cc1`: the log K of transfer, gas to solvent in data set [1] (1,2-Dichloroethane, 25 C) was 4.37 log10 K; in data set [1] (2-Methylpropan-1-ol, 25 C), 3.62 log10 K; in data set [1] (CCl4, 25 C), 4.2 log10 K; in data set [1] (Cyclohexane, 25 C) it was 3.86 log10 K; in data set [1] (Ethanol, 25 C), 3.73 log10 K; in data set [1] (Hexadecane, 25 C), 3.84 log10 K. Besides, the log K of transfer, gas to solvent is 3.79 log10 K in data set [1] (Octan-1-ol, 25 C) and 0.59 log10 K in data set [1] (Water, 25 C). Moreover, the log K of transfer, water to solvent in data set [2] was 3.15 log10 K; in data set [3] (1,2-Dichloroethane, 25 C), 3.78 log10 K; in data set [3] (2-Methylpropan-1-ol, 25 C) it was 3.03 log10 K; in data set [3] (CCl4, 25 C), 3.61 log10 K; in data set [3] (Cyclohexane, 25 C), 3.27 log10 K; in data set [3] (Ethanol, 25 C), 3.14 log10 K. In addition, the log K of transfer, water to solvent in data set [3] (Hexadecane, 25 C) is 3.25 log10 K; in data set [3] (Octan-1-ol(dry), 25 C) it was 3.2 log10 K.
